Consider two compounds from patent US11072632B2, “Inhibitors of 17β-HSD1, 17β-HSD3 and 17β-HSD10” (UNIVERSITÉ LAVAL, priority 2011, dated 2021).

Series [1] is described as follows: Plasma concentration of inhibitor after a single subcutaneous injection. To be noted: rat, in vivo, sc. On the procedure:
Six week-old male Sprague-Dawley rats weighing approximately 220 g were obtained from Charles-River, Inc. (St-Constant, Qc., Canada). The animals were housed 3 per cage. A pharmacokinetic study was carried out following one subcutaneous (s.c.) injection of the inhibitor at one concentration (2.3 mg/kg of body weight in 0.5 mL of vehicle fluid). The inhibitor was first dissolved in ethanol (EtOH) and thereafter we added propylene glycol (PG) to obtain a final concentration of EtOH of 8%. During this experiment, the rats were housed individually and were fasted for 8 h before inhibitor injection but allowed free access to water. Blood samples for determination of inhibitor plasma concentration were collected at the jugular vein (0.4 mL by animal) at target intervals of 3, 7, 12 and 24 h post-dose for Compound V and 3 and 12 h for CC-156, from three rats per time point. After the collection at 7 h, a replacement fluid (0.9% sodium chloride injection USP) was injected in the rat. Blood samples were collected into Microvette potassium-EDTA (ethylenediamine tetraacetic acid)-coated tube (Sarstedt, Aktiegesellchaft & Co, Germany) and centrifuged at 3200 rpm for 10 minutes at 4° C. The plasma was collected and stored at −80° C. until analyzed by liquid chromatography/mass spectrometry/mass spectrometry (LC/MS/MS) analysis.
The concentration of the inhibitors (Compounds I and V) was determined by LC/MS/MS analysis using a procedure developed at CHUQ (CHUL)-Research Center (Québec, Qc, Canada). Briefly, for extraction from serum, 100 μL of serum sample is transferred to individual tubes and 600 μL of ammonium acetate (1 mM) is added. A methanolic solution (50 μL) containing a steroidal internal standard is then added to each tube. Samples are transferred on Strata-X SPE columns (Phenomenex, Torrance, Calif., USA), which have been conditioned with 2 mL of methanol and 2 mL of water. Each column is washed with 2 mL of methanol:water (10:90, v/v). The inhibitor is then eluted with 5 mL of methanol containing 5 mM ammonium acetate. Methanol is evaporated at 45° C. under inert atmosphere and the residue dissolved in 100 μL of methanol:water (85:15, v/v). For the steroid analysis, the HPLC system uses a 75×4.6-mm, 3 μm reversed-phase Luna Phenyl-Hexyl column (Phenomenex, Torrance, Calif., USA) at a flow rate of 0.8 mL/min. The inhibitor is detected using an API 3000 mass spectrometer, equipped with TurbolonSpray (Applied Biosystems, Canada). ESI in positive ion mode was used. The area under the curve (AUC) was calculated using the linear trapezoidal rule.

Series [2] has as its system MCF-7 cells. Briefly: Estrogenic activity in MCF-7 cells. It is filed as cell-based, human. To be noted: 7 days, concentrations up to 5 μM. As for the experimental part:
MCF-7 cells were seeded with medium supplemented with insulin (50 ng/mL) and 5% dextran-coated charcoal treated FBS rather than 10% FBS to remove remaining hormones. Aliquots (100 μL) of the cell suspension were seeded in 96-well plates (3000 cells/well). […] Cells were grown either in the absence or presence of the compounds over a period of 7 days. Quantification of cell growth was determined by using the CellTiter 96®Aqueous Solution Cell Proliferation Assay (Promega, Nepean, ON, Canada) following the manufacturer's instructions. To determine the proliferative (estrogenic) activity, the cells were grown in the absence (control fixed as 100%) or presence of the tested compounds at the indicated concentrations.

For series [3], the target named is T1, 17β-HSD1 (Homo sapiens, UniProt P14061).
T1 construct: endogenous in cells; host or cells: T-47D
T1 sequence (P14061 1-328): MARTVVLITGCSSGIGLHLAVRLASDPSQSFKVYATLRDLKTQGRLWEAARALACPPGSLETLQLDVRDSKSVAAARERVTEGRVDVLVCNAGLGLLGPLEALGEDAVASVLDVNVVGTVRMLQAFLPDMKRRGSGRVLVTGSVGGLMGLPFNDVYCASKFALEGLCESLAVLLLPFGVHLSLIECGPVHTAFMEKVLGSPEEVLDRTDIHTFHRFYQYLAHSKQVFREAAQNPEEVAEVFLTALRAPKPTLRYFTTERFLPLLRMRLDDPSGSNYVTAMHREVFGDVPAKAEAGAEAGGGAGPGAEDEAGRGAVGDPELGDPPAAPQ
Briefly: Inhibition of 17β-HSD1 in T-47D intact cells (E1 into E2). Type of series: cell-based. To be noted: for inhibition at 0.01 µM: read-out: Inhibition % (0.01 μM). In short, it runs like this:
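Intact T-47D cells in medium with insulin and 5% charcoal-stripped FBS were incubated with inhibitor (0.1% ethanol) and 60 nM [14C]-estrone, in triplicate. Steroids were ether-extracted and separated by TLC, and [14C]-E1 to E2 conversion was quantified by radioimaging.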

Series [4] has as its target T2, CYP3A4 (Homo sapiens, UniProt P08684).
T2 construct: purchased BD Biosciences
Briefly: Inhibition of CYP3A4 (P450 Inhibition Kit CYP3A4/DBF). It is filed as in vitro ADME.

Read-outs that look alike come from different tables or passages of the source.

T2 sequence (P08684 whole entry): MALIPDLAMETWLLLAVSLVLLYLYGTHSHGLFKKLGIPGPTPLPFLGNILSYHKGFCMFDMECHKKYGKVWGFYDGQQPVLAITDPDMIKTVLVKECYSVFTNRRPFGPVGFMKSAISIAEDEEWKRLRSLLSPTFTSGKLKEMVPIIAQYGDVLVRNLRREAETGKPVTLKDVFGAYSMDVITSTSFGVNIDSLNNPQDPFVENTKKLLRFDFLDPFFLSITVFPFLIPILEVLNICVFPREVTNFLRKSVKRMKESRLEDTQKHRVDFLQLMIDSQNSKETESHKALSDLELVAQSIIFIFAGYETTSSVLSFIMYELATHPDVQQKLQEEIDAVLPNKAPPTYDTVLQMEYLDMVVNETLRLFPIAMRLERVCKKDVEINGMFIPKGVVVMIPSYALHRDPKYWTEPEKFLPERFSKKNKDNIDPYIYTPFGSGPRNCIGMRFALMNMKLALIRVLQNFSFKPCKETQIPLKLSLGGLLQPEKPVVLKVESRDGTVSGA

A word on the inhibition: it is the share of the control response that was lost under treatment. A word on the IC50: it is the concentration needed to halve the response being measured. Take `C[C@]12CC[C@@H]3c4ccc(O)cc4CC[C@H]3[C@@H]1C[C@H](Cc1cccc(C(N)=O)c1)[C@@H]2O` [Compound I, 16β-(m-carbamoylbenzyl)estradiol, reference compound]: the “time at which maximum plasma concentration (Cmax) was attained” value in series [1] (2.3 mg/kg) is listed as 3 h. Besides, the “estrogenic activity on MCF-7 cells (FIG. 1)” value in series [2] is “strongly stimulated the estrogen sensitive MCF-7 cells”. Also, the inhibition at 0.01 µM in series [3] (T47D, [14C]-E1 (60 nM) into [14C]-E2, T-47D intact cells, 0.01 μM) turned out to be 35%. Also, in series [3] (T47D, [14C]-E1 (60 nM) into [14C]-E2, T-47D intact cells, 0.1 μM, read-out: Inhibition % (0.1 μM)), the inhibition at 0.1 µM amounted to 66%. Besides, the IC50 in series [4] (read-out: IC50 on CYP3A4) came out at 1.52 ± 0.29 µM.
Consider `C[C@]12CC[C@@H]3c4ccc(CCBr)cc4CC[C@H]3[C@@H]1C[C@H](Cc1cccc(C(N)=O)c1)[C@@H]2O` [Compound V, 3-{[(16β,17β)-3-(2-bromoethyl)-17-hydroxyestra-1(10),2,4-trien-16-yl]methyl}benzamide], for which the concentration at 7 h in series [1] (male, Sprague-Dawley, s.c. 2.3 mg/kg, 7 h) worked out at 0.0738 µg/mL. Moreover, the concentration at 12 h in series [1] (male, Sprague-Dawley, s.c. 2.3 mg/kg, 12 h) is 0.0507 µg/mL. The same compound displayed a concentration at 24 h in series [1] (male, Sprague-Dawley, s.c. 2.3 mg/kg, 24 h) of 0.0117 µg/mL. Besides, the AUC(0-t) in series [1] (male, Sprague-Dawley, s.c. 2.3 mg/kg, read-out: AUC0-24 h) turned out to be 1.15 µg·h/mL. For the same compound, the “estrogenic activity on MCF-7 cells (FIG. 1)” value in series [2] is recorded as “no estrogenicity”. The inhibition at 0.01 µM in series [3] (T47D) is 23%. Further, the inhibition at 0.1 µM came to 49% in series [3] (T47D, read-out: Inhibition % (0.1 μM)) and 56% in series [3] (T47D, read-out: Inhibition (0.1 μM)). Further, the inhibition at 1 µM in series [3] (T47D, read-out: Inhibition (1 μM)) was determined as 89%. For the same compound, the IC50 was found to be 0.068 µM in series [3] (T-47D intact cells, [14C]-E1 60 nM) and 4.06 ± 0.57 µM in series [4].
